# Results reported in ChEMBL document CHEMBL1201862, “PubChem BioAssay data set” (2004).
# Activity calls are given as the source filed them.
# Columns and labels:
# Protein RecA = target: T1, Protein RecA (Mycobacterium tuberculosis, UniProt P9WHJ3); experiment: Fluorescence Cell-Free Homogeneous Dose Retest to Identify Inhibitors of RecA-Intein Splicing Activity. [Related pubchem assays (depositor defined):AID2097, AID2223, AID489010, AID492950]; assay type: functional
# T1 sequence (P9WHJ3 whole entry): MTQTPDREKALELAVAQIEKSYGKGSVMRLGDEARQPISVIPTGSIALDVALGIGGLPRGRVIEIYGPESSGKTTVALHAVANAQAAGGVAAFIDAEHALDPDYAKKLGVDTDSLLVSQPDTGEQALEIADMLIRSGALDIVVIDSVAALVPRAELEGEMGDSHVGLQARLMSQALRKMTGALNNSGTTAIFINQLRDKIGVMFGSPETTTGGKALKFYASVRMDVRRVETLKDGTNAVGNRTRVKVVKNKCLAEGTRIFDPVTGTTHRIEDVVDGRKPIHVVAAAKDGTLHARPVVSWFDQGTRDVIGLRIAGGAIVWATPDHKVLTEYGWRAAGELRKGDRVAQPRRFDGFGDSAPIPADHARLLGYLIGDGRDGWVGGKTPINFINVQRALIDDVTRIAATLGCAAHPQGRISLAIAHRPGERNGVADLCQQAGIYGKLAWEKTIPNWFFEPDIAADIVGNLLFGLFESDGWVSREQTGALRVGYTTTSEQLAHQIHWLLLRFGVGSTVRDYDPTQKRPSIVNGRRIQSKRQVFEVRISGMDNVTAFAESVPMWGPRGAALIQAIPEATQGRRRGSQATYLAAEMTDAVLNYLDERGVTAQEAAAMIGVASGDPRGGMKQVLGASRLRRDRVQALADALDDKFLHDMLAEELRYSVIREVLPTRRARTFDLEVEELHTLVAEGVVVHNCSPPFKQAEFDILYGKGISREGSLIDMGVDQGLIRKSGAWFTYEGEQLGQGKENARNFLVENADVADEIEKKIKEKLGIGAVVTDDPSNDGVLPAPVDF
# [1] = Reduced DLD-1 viability, concentration-response, CellTiter-Glo luminescence (AID 1117352); assay type: functional
# Vasopressin V1a receptor = Vasopressin V1a receptor (Homo sapiens, UniProt P37288); experiment: Counterscreen for Oxytocin Receptor (OXTR) agonists: Fluorescence-based cell-based high throughput dose response assay to identify agonists of the vasopressin 1 receptor (V1R). [Related pubchem assays: 2435 (Primary screen (OXTR agonists in singlicate)), 434991 (Counterscreen (V1R agonists in triplicate)), 2482 (Summary (OXTR agonists)) …; assay type: functional
# [2] = cytotoxicity toward HT-29 cells – cell-based, CellTiter-Glo luminescence, IC50, dose response (AID 1117330); assay type: functional
# [3] = target: T2, DNA repair protein RAD52 homolog (Homo sapiens, UniProt P43351); assay type: functional, biochemical
# T2 sequence (P43351 whole entry): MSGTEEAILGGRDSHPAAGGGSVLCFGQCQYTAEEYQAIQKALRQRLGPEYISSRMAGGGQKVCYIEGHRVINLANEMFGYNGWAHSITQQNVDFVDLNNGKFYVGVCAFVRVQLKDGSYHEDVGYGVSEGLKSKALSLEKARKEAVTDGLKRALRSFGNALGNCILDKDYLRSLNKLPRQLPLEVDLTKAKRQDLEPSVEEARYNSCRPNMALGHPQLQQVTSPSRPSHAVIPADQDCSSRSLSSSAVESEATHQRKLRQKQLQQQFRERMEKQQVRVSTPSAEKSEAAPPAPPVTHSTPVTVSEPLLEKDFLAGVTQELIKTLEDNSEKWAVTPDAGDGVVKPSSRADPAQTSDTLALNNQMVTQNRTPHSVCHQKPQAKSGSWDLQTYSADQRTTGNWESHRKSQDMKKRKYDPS
# [4] = microbe, parasite or virus in culture; assay type: functional; conditions: Mycobacterium tuberculosis
# [5] = target: Heat shock protein HSP 90-alpha (Homo sapiens, UniProt P07900); assay type: functional, organism-based
# [6] = glucagon-like peptide-1 release potency in STC-1, concentration-response, half-maximal inhibitory concentration in the STC-1 line (AID 1117345); assay type: functional, cell-based
# Oxytocin receptor = Oxytocin receptor (Homo sapiens, UniProt P30559); experiment: Fluorescence-based cell-based high throughput dose response assay for agonists of the Oxytocin Receptor (OXTR). [Related pubchem assays: 2435 (Primary screen (OXTR agonists in singlicate)), 434991 (Counterscreen (V1R agonists in triplicate)), 2482 (Summary (OXTR agonists)), 434963 (Confirmation screen (OXTR agonists in triplicate))]; assay type: functional
# INS1 = experiment: INS-1E survival protection against cytokine death – cell-based, luminescence, retest, dose response (AID 449756); assay type: functional; conditions: Rattus norvegicus;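 also: cell death triggered by IL-1 beta plus TNF-alpha plus IFN-gamma mixture; protective hits raise ATP signal compared with cytokine alone wells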
# [7] = RKO cell viability reduction, dose response, CellTiter-Glo luminescence (AID 1117322); assay type: functional
# [8] = target: T3, Replicative DNA helicase DnaB (Mycobacterium tuberculosis, UniProt P9WMR3); experiment: DnaB intein splicing inhibitors, dose response, biochemical, cell-free fluorescence (AID 449749); assay type: functional
# T3 sequence (P9WMR3 whole entry): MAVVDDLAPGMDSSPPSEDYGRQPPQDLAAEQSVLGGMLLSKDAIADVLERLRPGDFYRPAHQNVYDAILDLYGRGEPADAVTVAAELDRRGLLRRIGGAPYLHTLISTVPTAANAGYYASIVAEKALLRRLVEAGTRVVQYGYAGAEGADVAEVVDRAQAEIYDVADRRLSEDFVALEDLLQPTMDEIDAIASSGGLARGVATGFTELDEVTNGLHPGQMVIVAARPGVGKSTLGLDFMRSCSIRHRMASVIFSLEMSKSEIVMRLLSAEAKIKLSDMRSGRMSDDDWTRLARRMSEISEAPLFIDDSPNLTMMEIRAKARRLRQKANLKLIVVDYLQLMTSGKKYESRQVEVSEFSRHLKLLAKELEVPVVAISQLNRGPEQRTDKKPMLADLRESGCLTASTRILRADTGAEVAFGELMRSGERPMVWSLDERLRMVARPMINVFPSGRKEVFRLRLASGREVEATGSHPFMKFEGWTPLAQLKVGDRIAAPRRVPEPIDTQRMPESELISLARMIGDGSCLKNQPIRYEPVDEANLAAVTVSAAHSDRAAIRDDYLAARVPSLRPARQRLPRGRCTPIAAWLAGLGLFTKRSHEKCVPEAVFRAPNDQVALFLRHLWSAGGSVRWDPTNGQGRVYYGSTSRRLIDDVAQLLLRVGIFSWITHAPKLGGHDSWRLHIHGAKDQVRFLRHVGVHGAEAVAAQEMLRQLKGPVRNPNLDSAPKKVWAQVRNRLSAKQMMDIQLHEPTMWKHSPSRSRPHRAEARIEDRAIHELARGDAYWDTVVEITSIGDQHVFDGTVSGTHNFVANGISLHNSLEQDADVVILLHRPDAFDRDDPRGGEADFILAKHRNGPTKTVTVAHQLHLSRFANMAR
# [9] = system: Streptococcus sp. 'group A'; experiment: Streptococcus pyogenes SK(-)GAS viability under kanamycin – luminescence, BacTiterGlo, confirmation, counter-screen for streptokinase expression inhibitor project, dose response (AID 1900); assay type: functional, organism-based
# [10] = CellTiter-Glo luminescence survival assay, SW480 colon tumor line, concentration-response curve, half-maximal inhibitory concentration (AID 1117338); assay type: functional
# [11] = cytotoxicity toward Colo320 cells – cell-based, CellTiter-Glo luminescence, IC50, dose response (AID 1117334); assay type: functional; conditions: COLO 320
# [12] = SNU-C1 cell viability reduction, dose response, CellTiter-Glo luminescence (AID 1117323); assay type: functional, cell-based
# [13] = cytotoxicity toward HCT116 cells – cell-based, CellTiter-Glo luminescence, IC50, dose response (AID 1117332); assay type: functional; conditions: HCT-116
# Streptococcus = experiment: GAS UMAA2166 growth inhibition – luminescence, BacTiterGlo, counter-screen for streptokinase expression inhibitor project, dose response (AID 1915); assay type: functional, organism-based;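 also: potency for reduction of bacterial viability or growth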
# [14] = Potency on glucagon-like peptide 1 release, dose-response in NCI-H716 cell line, half maximal inhibitory concentration (AID 1117344); assay type: functional, cell-based
# Vero = experiment: viability of Vero cells under compound – cytotoxicity control for flavivirus capping enzyme inhibitors (AID 588742); assay type: functional; conditions: Chlorocebus sabaeus
# [15] = HCT116 cell viability decrease, GSK3B pretreatment – CellTiter-Glo, IC50, dose response (AID 1117339); assay type: functional; conditions: HCT-116
# Streptokinase A = target: T4, Streptokinase A (Streptococcus pyogenes serotype M1, UniProt P10520); experiment: viability-normalized secreted streptokinase activity reduction – plasminogen activation absorbance, OD405, dose response (AID 1914); assay type: functional, Streptococcus pyogenes M1 GAS;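 also: secreted streptokinase activity via plasminogen activation per viability signal from cell pellet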
# T4 sequence (P10520 whole entry): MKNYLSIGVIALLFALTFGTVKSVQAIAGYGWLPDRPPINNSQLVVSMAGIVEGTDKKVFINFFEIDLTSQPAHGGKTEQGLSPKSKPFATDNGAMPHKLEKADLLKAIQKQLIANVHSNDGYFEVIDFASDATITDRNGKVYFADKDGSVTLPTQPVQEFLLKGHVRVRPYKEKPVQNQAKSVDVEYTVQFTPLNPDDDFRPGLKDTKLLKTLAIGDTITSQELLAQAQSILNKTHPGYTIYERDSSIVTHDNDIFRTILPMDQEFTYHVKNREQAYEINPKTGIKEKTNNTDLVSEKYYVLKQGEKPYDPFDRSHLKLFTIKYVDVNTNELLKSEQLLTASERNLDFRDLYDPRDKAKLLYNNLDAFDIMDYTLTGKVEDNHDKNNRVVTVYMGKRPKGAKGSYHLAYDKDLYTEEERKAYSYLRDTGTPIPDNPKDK
# Chaperone protein dnaK = Chaperone protein dnaK (Escherichia coli, UniProt C3TRK2); experiment: E. coli DnaK binders, calorimetric Kd – biophysical, isothermal titration calorimetry, beta-domain, full-length DnaK, orthogonal assay for DnaK modulator project, SAR follow-up (AID 1495)
# [16] = target: T5, Neuropeptide Y receptor type 2 (Homo sapiens, UniProt P49146); experiment: Fluorescence-based counterscreen for agonists of NPY-Y1: cell-based high-throughput dose response assay for agonists of NPY-Y2.; assay type: functional
# T5 sequence (P49146 whole entry): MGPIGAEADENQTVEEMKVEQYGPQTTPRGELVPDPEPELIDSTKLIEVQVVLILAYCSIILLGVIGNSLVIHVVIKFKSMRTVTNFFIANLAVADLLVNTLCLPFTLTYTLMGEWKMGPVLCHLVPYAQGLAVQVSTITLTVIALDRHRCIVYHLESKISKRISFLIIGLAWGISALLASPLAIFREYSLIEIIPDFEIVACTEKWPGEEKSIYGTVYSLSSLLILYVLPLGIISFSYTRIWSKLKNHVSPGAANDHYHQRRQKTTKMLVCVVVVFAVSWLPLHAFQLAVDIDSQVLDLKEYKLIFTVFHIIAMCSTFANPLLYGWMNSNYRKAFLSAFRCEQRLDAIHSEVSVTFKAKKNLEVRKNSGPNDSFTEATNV
# [17] = target: T6, Neuropeptide Y receptor type 1 (Homo sapiens, UniProt P25929); experiment: Fluorescence-based dose response cell-based high-throughput screening assay for agonists of NPY-Y1. [Related pubchem assays: 1697 (Screening assay (NPY-Y1 agonists).), 1359 (Screening assay (NPY-Y2 potentiators or agonists).), 1304 (Screening assay (NPY-Y1 potentiators or agonists).), 1704 (Screening assay (CNGC inhibitors).), 1791 (Summary AID.)]; assay type: functional
# T6 sequence (P25929 whole entry): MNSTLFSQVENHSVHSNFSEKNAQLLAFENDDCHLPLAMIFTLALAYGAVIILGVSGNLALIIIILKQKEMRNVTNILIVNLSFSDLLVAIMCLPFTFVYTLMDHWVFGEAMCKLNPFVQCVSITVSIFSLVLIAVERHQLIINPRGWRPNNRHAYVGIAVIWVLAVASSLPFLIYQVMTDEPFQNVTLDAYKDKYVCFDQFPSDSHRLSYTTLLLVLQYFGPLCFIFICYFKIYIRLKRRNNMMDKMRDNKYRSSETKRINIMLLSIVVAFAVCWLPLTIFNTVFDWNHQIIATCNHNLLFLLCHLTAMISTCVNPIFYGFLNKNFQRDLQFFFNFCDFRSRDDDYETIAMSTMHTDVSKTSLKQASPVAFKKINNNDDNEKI
# HEK293 = experiment: Fluorescence-based counterscreen for potentiators or agonists of NPY-Y1: cell-based high-throughput dose response assay for inhibitors of cyclic nucleotide gated ion channel (CNGC) activity. In this assay, the parental HEK293 cell line transfected with a cyclic-nucleotide gated ion channel (CNGC)-based cAMP sensor is used to measure inhibition of isoproterenol-induced CNGC …; assay type: functional; conditions: Homo sapiens
# Chain of Oxytocin receptor (P30559 whole entry): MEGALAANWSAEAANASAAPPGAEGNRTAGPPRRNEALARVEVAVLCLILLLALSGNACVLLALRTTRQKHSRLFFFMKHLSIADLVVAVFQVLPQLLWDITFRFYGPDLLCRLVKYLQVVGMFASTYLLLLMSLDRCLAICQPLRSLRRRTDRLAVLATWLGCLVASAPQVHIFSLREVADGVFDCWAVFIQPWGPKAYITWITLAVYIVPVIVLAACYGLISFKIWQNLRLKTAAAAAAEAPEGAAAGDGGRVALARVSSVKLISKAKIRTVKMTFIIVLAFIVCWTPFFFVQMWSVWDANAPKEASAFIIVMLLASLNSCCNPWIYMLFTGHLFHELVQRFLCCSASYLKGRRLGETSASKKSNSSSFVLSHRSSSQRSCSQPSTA
# Chain of Vasopressin V1a receptor (P37288 whole entry): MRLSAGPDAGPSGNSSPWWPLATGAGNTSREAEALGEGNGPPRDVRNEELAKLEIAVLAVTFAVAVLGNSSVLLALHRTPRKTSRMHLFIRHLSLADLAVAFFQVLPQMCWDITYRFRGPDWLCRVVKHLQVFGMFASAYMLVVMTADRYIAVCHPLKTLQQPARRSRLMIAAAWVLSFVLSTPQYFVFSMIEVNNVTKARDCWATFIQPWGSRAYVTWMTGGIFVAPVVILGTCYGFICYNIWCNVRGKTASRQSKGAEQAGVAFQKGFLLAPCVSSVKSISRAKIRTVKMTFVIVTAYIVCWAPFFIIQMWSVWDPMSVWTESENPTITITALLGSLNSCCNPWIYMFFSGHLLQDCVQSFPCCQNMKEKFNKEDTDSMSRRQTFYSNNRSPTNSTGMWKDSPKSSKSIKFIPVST
# Chain of Chaperone protein dnaK (C3TRK2 whole entry): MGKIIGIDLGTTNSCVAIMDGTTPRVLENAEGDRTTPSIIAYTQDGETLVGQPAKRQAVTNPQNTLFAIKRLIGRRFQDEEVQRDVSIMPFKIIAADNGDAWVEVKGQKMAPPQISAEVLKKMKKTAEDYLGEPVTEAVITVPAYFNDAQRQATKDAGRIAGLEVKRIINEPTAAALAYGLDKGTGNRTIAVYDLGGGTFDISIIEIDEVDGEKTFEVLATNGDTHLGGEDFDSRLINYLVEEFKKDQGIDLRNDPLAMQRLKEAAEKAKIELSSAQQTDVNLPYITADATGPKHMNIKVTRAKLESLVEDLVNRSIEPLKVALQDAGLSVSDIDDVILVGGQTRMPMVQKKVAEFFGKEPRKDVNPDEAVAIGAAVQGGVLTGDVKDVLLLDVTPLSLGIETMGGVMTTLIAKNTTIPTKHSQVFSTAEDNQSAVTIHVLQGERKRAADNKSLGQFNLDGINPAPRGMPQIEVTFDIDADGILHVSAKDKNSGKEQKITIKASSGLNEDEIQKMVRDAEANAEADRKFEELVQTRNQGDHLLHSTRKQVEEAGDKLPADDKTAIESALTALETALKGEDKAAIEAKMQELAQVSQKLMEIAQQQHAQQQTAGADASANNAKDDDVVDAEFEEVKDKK
structure (smiles),measurement,setting,value
CCCCCCCCCCCCCCCC[N+](C)(C)CC,EC50,Protein RecA,13.2 µM (active)
same,IC50,[1],740 nM (active)
same,EC50,Vasopressin V1a receptor,> 3.32 µM (active)
same,IC50,[2],409 nM (active)
same,AC50,[3],8.98 µM (active)
same,CC50,[4],34.8 µM (active)
same,AC50,[5],1.16 µM (active)
same,IC50,[6],> 40 µM (inactive)
same,EC50,Oxytocin receptor,> 29.9 µM (not active)
same,AC50,INS1,2.97 µM (active)
same,IC50,[7],931 nM (active)
same,AC50,[8],4.56 µM (active)
same,EC50,[9],1.3 µM (active)
same,IC50,[10],1.24 µM (active)
same,IC50,[11],37.2 nM (active)
same,IC50,[12],4 nM (active)
same,IC50,[13],3.16 µM (active)
same,EC50,Streptococcus,8.57 µM (active)
same,IC50,[14],11.7 µM (inactive)
same,CC50,Vero,32.7 µM (active)
same,IC50,[15],2.68 µM (active)
same,EC50,Streptokinase A,23.2 µM (inconclusive)
O=C(NCc1cccc2ccsc12)c1cccs1,Kd,Chaperone protein dnaK,200 nM (active)
O=C(Nc1ccncc1)c1ccc2c(c1)C(=O)N(C1CCCCC1)C2=O,EC50,[16],> 35.4 µM (not active)
same,EC50,[17],> 35.4 µM (not active)
same,IC50,HEK293,> 35.4 µM (not active)
